In patent US5672603A, “Apoptosis regulating composition” (Otsuka Pharmaceutical Co., Ltd., priority 1991, dated 1997):

Key:
[1] = tested on: acute hepatic failure model; experiment: Effect on hepatic failure (heat-killed bacteria / LPS), survival; assay type: in vivo, Balb/c mice; settings: for Survival rate: 7 days after LPS, untreated 0%, solvent 10%
Protocol: Heat-killed cells of P. aches (a gift from Dr. Mizoguchi, the Third Department of Internal Medicine, Osaka City University School of Medicine) were administered intravenously in a dose of 3 mg/body to male Balb/c mice (7 weeks old, purchased from Japan SLC). Seven days later; a solvent group (0.5% CMC, Dai-ichi Kogyo Seiyaku Co., Ltd) and an untreated group, as well as the test groups given 10 or 100 mg/kg of Compound 1 orally, were provided. One hour after administration of Compound 1, 5 μg/body of lipopolysaccharide (LPS, Sigma Co., Ltd.) was administered intravenously to induce acute hepatic failure.

[2] = tested on: CMK cells (platelet-associated antigen, glycoprotein IIb/IIIa); experiment: Expression of platelet-associated antigen of CMK cells (Plt-1 antibody); assay type: cell-based, human; settings: 30 μg/ml
Protocol: Compound 1 was dissolved in 1N hydrochloric acid and diluted with fetal calf serum (FCS, Gibco) to give a 1 mg/ml solution. This solution was added to RPMI-1640 medium (Flow Laboratories) supplemented 10% FCS and the mixture was neutralized with 1N NaOH and adjusted to a concentration of 30 μg/ml before use.
CMK cells were established by T. Sato et al. from patients with acute megakaryocytic leukemia. They are known to react with anti-platelet antibodies (anti-glycoprotein IIb/IIIa antibody, anti-glycoprotein Ib antibody and Plt-1 antibody). Moreover, it has mega-karyocyte-like properties, such as formation of α granules and a demarcation membrane in the cytoplasm. Therefore, these cells have been used for the analysis of the growth and differentiation of megakaryocytes [Sato, T., et al., Exp. Hematol., 15, 495 (1987); Sunami, S., et al., Blood, 70., 368 (1987); Komatsu, N., et al., Blood, 74(1), 42-48 (1989); Fuse, A., et al., British J. Haematology, 77, 32-36 (1991); Acta Haematologia Japonica 53(2), 294-295, 317-318 (1990)].
CMK cells were supplied by Dr. Takelruki Sato at the Department of Pediatrics, Chiba University School of Medicine. The cells, 5×10^4 cells/ml, were cultured in RPMI-1640 medium supplemented 10% FCS and subcultured every four days.
CMK cells, 1×10^5 cells/ml, were incubated in 10% FCS-added RPMI-1640 medium, containing 30 μg/ml of Compound 1, for 4 days and the expression of platelet-associated antigen on the cell surface was determined by flow cytometry (Coulter) using FITC-labeled Plt-1 antibody (Coulter). The medium containing no Compound 1 was used as a solvent control.
For the analysis of cell surface antigen, 1×10^6 cells/100 μl of CFIK cells were taken into a tube (Fischer) and reacted with 5 μl of FITC-labeled Plt-1 antibody at 4° C. for 30 minutes. The reaction mixture was washed three times with phosphate buffer containing 0.1% bovine serum albumin and determined for the percentage positive cells and fluorescence intensity.
The above-mentioned Plt-1 antibody (Coulter) is an antibody recognizing the platelet-associated antigen, glycoprotein IIb/IIIa and has been reported to increase with differentiation or maturation of CMK cells [Komatsu, N., et al., Blood, 74(1), 42-48 (1989)].

[3] = tested on: HL-60 cells; experiment: Differentiation inducing test: reactivity of HL-60 cells with monoclonal antibody FH-6 (sialyl Le^X); assay type: cell-based, human; settings: 2 hours; for Positive rate (%), FH-6: control 95
Protocol: The monoclonal antibody FH-6 capable of recognizing sialyl Le^X was fluoresein (FITC)-labeled, and the reactivity between the active ingredient compound of the present invention and FH-6 was examined by flow cytometry as follows.
The test compound solutions prepared as described above under (3) were added to HL-60 cells prepared as described above under (1) to a final concentration of 1.0 μg/ml or 10 μg/ml. Cultivation was conducted in a 5% carbon dioxide gas incubator at 37° C. for 2 hours. Thereafter, the cell concentration was adjusted to 1 x 10^6 cells/ml and 100 μl of each aliquot was reacted with 10 μl of the fluorescein-labeled FH-6 solution, followed by flow cytometry.

[4] = tested on: CMK cells; experiment: Apoptosis-regulating effect: DNA fragmentation in CMK cells (agarose gel electrophoresis); assay type: cell-based, human; settings: 30 μg/ml; 2 or 4 days
Protocol: CMK cells were used to prepare a suspension of 1×10^5 cells/ml in RPMI-1640 medium supplemented with fetal calf serum and Compound 1 was added at a concentration of 30 μg/ml. The mixture was incubated in a culture flask at 37° C. for 2 or 4 days. As a control, the medium to which the solvent alone was added was similarly incubated.
Cells were harvested by centrifugation at 4° C. for 10 minutes at 200×G. The pellet was dissolved in a hypotonic buffer (10 mM Tris-HCl, 1 mM EDTA and 0.2% Triton 100, pH 7.5) and the solution was centrifuged at 4° C. for 10 minutes at 13000×G. The supernatant was collected and allowed to stand in 50% isopropyl alcohol -0.5M NaCl at -20° C. overnight. The resultant precipitate was centrifuged at 4° C. for 10 minutes at 13000×G, the supernatant was discarded, and the sediment was dried. The dry sediment was resuspended in 10 mMTris-HCl-1 mM EDTA (pH 7.4). To the supernatant was added RNase at a final concentration of 0.1 mg/ml and the mixture was incubated at 37° C. for 1 hour.
To a sample corresponding to the cell count of 1×10^6 was added 1/5 volume of a loading buffer containing 15 mM EDTA, 2% SDS, 50% glycerol and 0.05% bromphenol blue, and the mixture was incubated at 65° C. for 10 minutes.
The culture sample thus obtained was subjected to electrophoresis in 1.5% agarose gel at 100 V for 100 minutes. The DNA was stained with ethidium bromide. […]

COc1ccc(C(=O)N2CCN(c3ccc4c(c3)CCC(=O)N4)CC2)cc1OC [Compound 1, 6-[4-(3,4-Dimethoxybenzoyl)-1-piperazinyl]-3,4-dihydrocarbostyril]
Survival rate ([1]; 10 mg/kg oral): 30%
Survival rate ([1]; 100 mg/kg oral): 70%
Life-prolonging effect in acute hepatitis model (in words) ([1]; 10 and 100 mg/kg oral): dose-dependent and excellent life-prolonging effect
Change in percentage of Plt-1 positive cells (in words) [2]: no change in the percentage of positive cells
Cell count ([2]; 4 days, solvent control 5.8): 3.2 10^5 /ml
Plt-1 percentage positive cells (%) ([2]; 4 days, solvent control 96.1): 96.5%
activity at 30 µg/mL ([2]; Homo sapiens, CMK, 96 h, 4 days, solvent control 100, read-out: Plt-1 mean fluorescence intensity (%)): 192%
fold induction at 30 µg/mL ([2]; Homo sapiens, CMK, read-out: Increase in expression of platelet-associated antigen): 2
Sialic acid on HL-60 cell surface ([3]; 1.0 or 10 μg/ml): loss of sialic acid from the HL-60 cell surface
Positive rate (%), FH-6 ([3]; 1.0 μg/ml): 82%
Positive rate (%), FH-6 ([3]; 10 μg/ml): 76%
Apoptosis (DNA fragmentation) [4]: promotes apoptosis of CMK cells
